Reference: patent US7691806B2, “Repeat sequence protein polymer active agent congjugates, methods and uses” (priority 2003, dated 2010)

Columns and labels:
Bacillus subtilis 168 = assay: Test-tube based antimicrobial assay of purified AMP-SELP fusions; assay type: cell-based; settings: 1.25 mg/ml in water, equal volume of 1:500 diluted culture, 37° C., after 4 hours
Experimental: (§1) Culture supernatant samples from post-induction time-points from a fermentation of Cecropin A-Melettin (CAM) fused to the N-terminus of SELP47K were tested for growth inhibition of E. coli and B. subtilis. […] Purified CAM-SELP47K (SEQ. ID. NO.32) and MBI-SELP47K (SEQ. ID. NO. 33) biomaterials were similarly tested for their antimicrobial activity. Lyophilized material was dissolved in water at 1.25 mg/ml and used in a test-tube based assay performed as follows: Bacillus subtilis 168 and Escherichia coli MG1655 were each grown from single colonies in 5 ml volumes of LB in test tubes, 37° C., 250 rpm, 16 hrs. Cultures were diluted 1:500 in Terrific broth. Equal volumes of diluted culture and purified AMP-SELP fusions described above were combined in sterile glass test-tubes (1 ml total volume in 5 ml tubes), in duplicate, and incubated at 37° C., 250 rpm. Purified SELP47K was used as a negative control.

Escherichia coli MG1655 = assay: as above; assay type: cell-based; settings: 1.25 mg/ml in water, equal volume of 1:500 diluted culture, 37° C., after 4 hours
Experimental: as §1

SELP47K: genetically engineered silk-elastin polymer, head-[(GAGAGS)2(GVGVP)3GKGVP(GVGP)4(GAGAGS)2]13-tail (SEQ ID NO. 19), 886 amino acids
growth in tubes (Bacillus subtilis 168): growth was clearly visible
growth in tubes (Escherichia coli MG1655): growth was clearly visible
